The values that follow are results of earlier work, collected in EP1379546B1, “PEPTIDE FOR THE DIAGNOSIS AND THERAPY OF ALZHEIMER'S DISEASE” (Leibniz-Institut für Altersforschung - …, priority 2001, dated 2002).

The data set has as its target Aβ (Homo sapiens, UniProt P05067). The conditions noted are these: inhibition of Aβ fibril formation and anticytotoxic effect, reported in Tomiyama et al., J. Biol. Chem. 1996.

Sequence of Aβ (P05067 672-711 limits assumed): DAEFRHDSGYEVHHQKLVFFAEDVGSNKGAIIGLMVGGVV

`CCCCCCCCCCCCCCCC[N+]1(C)CCCCC1.[Br-]` [Hexadecyl-N-methylpiperidiniumbromid]: the Dissoziationskonstante result is “µM- bis mM-Bereich”.

On to `CO[C@H]1/C=C/O[C@@]2(C)Oc3c(C)c(O)c4c(O)c(c(/C=N/N5CCN(C)CC5)c(O)c4c3C2=O)NC(=O)/C(C)=C\C=C\[C@H](C)[C@H](O)[C@@H](C)[C@@H](O)[C@@H](C)[C@H](OC(C)=O)[C@@H]1C` [Rifampicin], for which the Dissoziationskonstante entry is given as “µM- bis mM-Bereich”.
